Series [1] has as its system isoproterenol induced cardiac hypertrophy. The series is described as follows: Isoproterenol-induced cardiac hypertrophy in mice: heart size, heart weight ratios, histology. Format: in vivo, C57BL/6 male mice. The procedure: (§1) All animal and mouse studies and/or models of cardiac hypertrophy were conducted in accordance with the standards set forth in the Guide for the Care and Use of Laboratory Animals (NIH Publication No. 85-23, revised 1996) and were approved by our Institutional Animal Care and Use Committee. Eight week-old C57BL/6 male mice (Jackson Laboratory) were given isoproterenol (Sigma Aldrich) at 40 mg·kg^−1d^−1 administered S.Q. via micro-osmotic pump insertion (ALZET 1007D). Briefly, animals were anesthetized with isoflurane (1.5%) and oxygen (98.5%) using an animal ventilator (Surgivet), an incision (1 cm) was made on the back between the shoulder blades, and micro-osmotic pumps containing isoproterenol dissolved in a saline solution (0.9% NaCl) were inserted into the infrascapular subcutaneous tissue.
Doxycycline was given in drinking water at 6 mg mL^−1 (Sigma Aldrich) containing 5% sucrose unless specified otherwise. Control animals were given 5% sucrose water. […] Water was added to the mix 0.8:1 (water weight to powder weight ratio) and the resulting paste diced and heated at 60° C. overnight.
Histology. Animal hearts were excised, fixated with 10% phosphate-buffered formalin for 48 hours, and then embedded in paraffin. Cross-sectional slices in the minor axis were obtained with a microtome and the slices stained using Mayer's hematoxylin and eosin (H&E).
Statistical analysis of the data includes values presented are expressed in mean ±S.E.M. All comparisons between groups were performed using a one way ANOVA followed by the Newman-Keuls test. Differences were considered to be statistically significant when P<0.05.
P-values are obtained from a one way ANOVA. […] The control group (isoproterenol) received regular chow and 7% sucrose water. Each circle is the Heart to Body weights ratio obtained for a mouse, while the dashes are the average for each group.

For series [2], the system named is positive chronotropic effect induced by isoproterenol. The series is described as follows: Heart rate of isoproterenol-treated mice. It is filed as in vivo. The conditions noted are these: day 9 of treatment, vs isoproterenol-only mice; n=5; FIG. 5. As to the method: as §1
Doxycycline was given in drinking water at 6 mg mL^−1 (Sigma Aldrich) containing 5% sucrose unless specified otherwise. Control animals were given 5% sucrose water. […] Briefly, chow was crunched in powder and then mixed with carbamazepine. […]
The heart rates of the mice were measured before induction of cardiac hypertrophy and after treatment on day 9, which was 1 day before they were sacrificed. […] Heart rates were measured before the experiment (t0) and 1 day before the sacrifice. […]

A further series deals with cardiac gene expression. The series is described as follows: Real-time quantitative RT-PCR of heart RNA. It is filed as in vivo, mice. Also noted: key to Oncostatin receptor (Osmr), Real-time RT-PCR: Ind/Red (Induced/reduced) are used instead of fold-changes where no transcript was detected in one of the two samples being compared; Ind/Red (Induced/reduced) are used instead of fold-changes where no transcript was detected in one of the two samples being compared. Particulars: drug + isoproterenol vs isoproterenol only; for Oncostatin receptor (Osmr), Real-time RT-PCR: no transcript detected in one of the two samples. For orientation: In qPCR the cycle at which signal appears reflects the starting amount.

The test system of another series is CREB. The series is described as follows: Western blot of phosphorylation status of CREB. It is filed as in vivo. Particulars: mice with isoproterenol-induced cardiac hypertrophy. On the technique in general: In western blotting, separated proteins are transferred to a membrane and probed.
The conditions of series [3]: cited from earlier work.
The test system of a further series is adenylate cyclase. Particulars: by inhibiting adenylate cyclase; cited from earlier work.
The test system of the next series is Histone Deacetylase. Particulars: cited from earlier work.
The conditions of series [4]: doxycycline co-administered with carbamazepine; cited from earlier work.

Entries after “also recorded” stand apart in the source; their conditions may differ.

Description for CREB: Western Blots. The antibodies for Adra1b and GAPDH were purchased from Santa Cruz Biochemical Co. (Santa Cruz, Calif.). All other antibodies were purchased from Cell Signaling Technology, and Western blot analysis was performed as previously described (21). Briefly, equal amounts of total protein were loaded and separated on sodium dodecyl sulfate (SDS)—10% polyacrylamide gels and then transferred to nitrocellulose membranes. Membranes were blocked with 5% milk and washed in 1× Tween (0.1%)—Tris-buffered saline (TTBS) three times for 5 minutes each. Primary antibodies diluted 1:1000 in 5% milk or bovine serum albumin (BSA) (prepared in 1×TTBS) were allowed to incubate overnight at 4° C. After washing, horseradish peroxidase (HRP)-conjugated secondary antibody (Cell Signaling Technology) was diluted 1:2000 in 5% milk and applied to membranes. Subsequently, membranes were washed and a chemiluminescence substrate (Pierce, Rockford Ill.) was applied and allowed to incubate at room temperature for 5 minutes.
Description for cardiac gene expression: Real-time reverse transcriptase-polymerase chain reaction (RT-PCR). Real-time quantitative RT-PCR was performed in the iCycler iQ multi-Color real-time PCR detection system (Bio-Rad, Hercules, Calif.) using SYBR Green I dye (Qiagen, Valencia, Calif.) as described by the manufacturer. Briefly, 100 ng of RNA was placed into a 25 μl reaction volume containing 2.5 μl of each primer set (Quantitect Primer Assays, Qiagen), 12.5 μl SYBER Green PCR master mix, and 0.25 μl reverse transcriptase. A typical protocol included reverse transcription at 50° C. for 30 minutes and a denaturation step at 95° C. for 15 minutes followed by 35 cycles with 94° C. denaturation for 15 seconds, 55 C annealing for 30 seconds and 72 C extension for 30 seconds. Detection of the fluorescent product was performed at the end of the extension period at 60° C. for 20 seconds. To confirm amplification specificity, the PCR products were subjected to a melting curve analysis. […] Targets were normalized to reactions performed using Quantitect GAPDH primer assay (Qiagen), and fold change was determined using the comparative threshold method (20).

As for `NC(=O)N1c2ccccc2C=Cc2ccccc21` [carbamazepine], the “hypertrophic phenotype, heart cross sections (histology)” value in series [1] (isoproterenol mice, H&E cross sections, FIG. 2) is recorded as “structure that is relatively well preserved; also recorded: reduced the hypertrophic phenotype”. For the same compound, in series [1] (isoproterenol mice, 10 days, doxycycline 10 mg/mL in 7% sucrose water, carbamazepine […] in chow, FIG. 3, carbamazepine vs control P<0.01), the “Heart to Body weights ratio” value is “significantly decreased”. In addition, the “Heart to Tibia length ratio” value in series [1] (isoproterenol mice, carbamazepine in chow or doxycycline in water vs no drug, FIG. 1, carbamazepine vs control P<0.0001) was “significantly lower; also recorded: significantly decreased”. Further, in series [1] (single isoproterenol and carbamazepine treated mouse, FIG. 2C (untreated isoproterenol mouse 0.1800, wild type 0.1305)), the heart weight was 0.1415 grams. Also, the heart rate entry in series [2] was “significantly lower heart rates; also recorded: attenuation of the positive chronotropic effect”. Also, the “Oncostatin receptor (Osmr), Real-time RT-PCR” value with cardiac gene expression is recorded as “Red”. Moreover, in the series with cardiac gene expression (normalized to GAPDH), the “Cyclin-dependent kinase inhibitor 1A (p21) (Cdkn1a), Real-time RT-PCR FC” value was −2.5 FC; the “Cytokine inducible SH2-containing protein 3 (Socs3), Real-time RT-PCR FC” value is listed as −4.3 FC; the “GATA binding protein 4 (Gata4), Real-time RT-PCR FC” value amounted to 2.0 FC; the “Matrix metalloproteinase 3 (Mmp3), Real-time RT-PCR FC” value was −2.5 FC. Besides, in the series on cardiac gene expression (normalized to GAPDH), the “NADPH oxidase 4 (Nox4), Real-time RT-PCR FC” value is recorded as −3.5 FC; the “Phospholipase A2 group VII (platelet-activating factor acetylhydrolase, plasma) (Pla2g7), Real-time RT-PCR FC” value is −3.5 FC; the “S100 calcium binding protein A8 (calgranulin A) (S100a8), Real-time RT-PCR FC” value was −2.1 FC; the “SET and MYND domain containing 1 (Smyd1), Real-time RT-PCR FC” value turned out to be 3.3 FC. Moreover, in the series with cardiac gene expression (normalized to GAPDH), the “Serine protease inhibitor 2-2 (Spi2-2) (Serpin3n), Real-time RT-PCR FC” value is recorded as −13.9 FC and the “Transformation related protein 53 inducible nuclear protein 1 (Trp53inp1), Real-time RT-PCR FC” value is given as −3.0 FC. Also, in the series with CREB, the “levels of phosphorylated CREB” value was “Almost no phosphorylated CREB was detected”. In series [3] (epileptic patients), the “blood pressure and heart rates” value is “lower blood pressure and heart rates”. Further, the cardiovascular toxic effects result in series [3] (in vivo) is “no cardiovascular toxic effects”. Moreover, in the series with adenylate cyclase, the “basal and forskolin-stimulated cAMP production” value was “abrogate both basal and forskolin-stimulated cAMP production”. Also, the “inhibition of Histone Deacetylase (HDAC)” value in the series with Histone Deacetylase is “inhibit Histone Deacetylase”.
As for `C[C@H]1c2cccc(O)c2C(=O)C2=C(O)[C@]3(O)C(=O)C(C(N)=O)=C(O)[C@@H](N(C)C)[C@@H]3[C@@H](O)[C@@H]21` [doxycycline], the “Oncostatin receptor (Osmr), Real-time RT-PCR” value in the series on cardiac gene expression was “Red”. Besides, in the series on cardiac gene expression (normalized to GAPDH), the “Cyclin G2 (Ccng2), Real-time RT-PCR FC” value is recorded as −5.7 FC; the “Cyclin-dependent kinase inhibitor 1A (p21) (Cdkn1a), Real-time RT-PCR FC” value was −7.0 FC; the “Cytokine inducible SH2-containing protein 3 (Socs3), Real-time RT-PCR FC” value is given as −4.0 FC; the “DNA-damage-inducible transcript 4 (Ddit4), Real-time RT-PCR FC” value is −5.7 FC. Moreover, in the series on cardiac gene expression (normalized to GAPDH), the “GATA binding protein 4 (Gata4), Real-time RT-PCR FC” value stood at 4.9 FC; the “Gem GTPase (Gem), Real-time RT-PCR FC” value is reported as −1.8 FC; the “Lipocalin 2 (Lcn2), Real-time RT-PCR FC” value is recorded as −9.9 FC; the “Matrix metalloproteinase 3 (Mmp3), Real-time RT-PCR FC” value is reported as −3.5 FC. In addition, in the series with cardiac gene expression (normalized to GAPDH), the “Metallothionein 1 (MT2), Real-time RT-PCR FC” value was −14.9 FC; the “NADPH oxidase 4 (Nox4), Real-time RT-PCR FC” value was −4.0 FC; the “Phospholipase A2 group VII (platelet-activating factor acetylhydrolase, plasma) (Pla2g7), Real-time RT-PCR FC” value is reported as −1.9 FC; the “S100 calcium binding protein A8 (calgranulin A) (S100a8), Real-time RT-PCR FC” value is listed as −181.0 FC. Besides, in the series on cardiac gene expression (normalized to GAPDH), the “S100 calcium binding protein A9 (calgranulin B) (S100a9), Real-time RT-PCR FC” value was −104.0 FC; the “SET and MYND domain containing 1 (Smyd1), Real-time RT-PCR FC” value came to 1.6 FC; the “Serine protease inhibitor 2-2 (Spi2-2) (Serpin3n), Real-time RT-PCR FC” value was −3.8 FC; the “Transformation related protein 53 inducible nuclear protein 1 (Trp53inp1), Real-time RT-PCR FC” value was −1.9 FC. The “Tubulin, alpha 4 (Tuba4), Real-time RT-PCR FC” value in the series with cardiac gene expression (normalized to GAPDH) came to 36.8 FC. In addition, the half-life result in series [4] was “shorter”.
